# Laboratory results published in US20240325484A1, “COMPOSITION COMPRISING HORSE CHESTNUT EXTRACT” (ANGIOLAB, INC., priority 2021, published 2024).
# Test system: RAW264.7 cells
# Test: Cytotoxicity assay (XTT, cell viability)
# Conditions: 4 days, at concentrations of 2.5, 5, 10, and 25 μM (FIG. 7 to FIG. 10)
# Experimental: The cells were treated with 50 μl of XTT reagent per well, then reacted for four hours. An absorbance change thereof was measured at 490 nm and 650 nm (reference wavelength) by ELISA (enzyme linked immunosorbent assay) reader (Molecular Devices, USA), and a cell viability was expressed as a percentage.
smiles,measurement,value
"C[C@@H]1O[C@@H](Oc2c(-c3ccc(O)c(O)c3)oc3cc(O)cc(O)c3c2=O)[C@H](O)[C@H](O)[C@H]1O [quercitrin, Quercitrin]",cytotoxicity,no cytotoxicity
